Laboratory results as given in patent publication US11331364B2, “Use for JNK inhibitor molecules for treatment of various diseases” (Xigen Inflammation Ltd., priority 2014, dated 2022).
Square brackets hold non-standard residues; d marks the D form. Peptide text beside a SMILES is read from it.

Experiments:
primary human T-cells = assay: IL-2 secretion by primary human T-cells; type: cell-based
Source text: The JNK inhibitors used are indicated by their SEQ ID NO: 172 and 197.

[1] = tested on: established type II collagen arthritis in rats; assay: Chronic established type II collagen arthritis, daily IV 14 days; type: in vivo, rat
Source text: Rat collagen arthritis is an experimental model of polyarthritis that has been widely used for preclinical testing of numerous anti-arthritic agents that are either under preclinical or clinical investigation or are currently used as therapeutics in this disease. […] Animals were terminated on arthritis day 14.

JNK = JNK and c-Jun activation after Aβ42 stress in PKR−/− primary cortical neurons; type: cell-based, mouse; settings: 10 μM, 2 μM Aβ42
Description: To obtain primary cortical neuronal cultures, E15.5 mice embryos were dissected in PBS (Phosphate Buffered Saline) 6% glucose, on ice. Embryos cortices were minced into small pieces and treated with PBS glucose trypsin (Sigma Aldrich, Saint-Louis, USA) for 20 min at 37° C. Dissociated cortical cells were cultured in Neurobasal media complemented with B27, Glutamax and penicillin-streptomycin (Gibco). Neurons were cultured at 37° C., 5% CO2 on pre-coated with poly-L-lysin (Sigma Aldrich) petri dishes. Neurons were cultured to maturity (7 days) before use.
To induce […] stress 2 μM of Aβ1-42 (Thermo Fisher Scientific, Mass., USA) were used during 5 h on cortical neurons. Aβ42-1 inversed peptide (Thermo Fisher Scientific) was used as negative control. AP 1-42 and Aβ42-1 were dissolved in pure water and incubated at 37° C. for 48 h before use.
To inhibit JNK, cortical neurons were pre-treated with 10 μM of XG-104 1 h before cell-stress treatment.
For immunoblot analysis cells were lysed on ice in a lysis buffer containing […] NaPi pH 7.8, […] NaCl, 1% Triton, 0.5% DOC, 0.1% SDS, 10% glycerol, 0.1 μM calyculin A, 1 mM Na3VO4 and 1× of a protease inhibitor cocktail (Sigma Aldrich). Lysates were sonicated and centrifugated 10 min at 15000 g at 4° C. The supernatant protein concentration was determined with the Micro BCA protein assay kit (Thermo Scientific). Thirty micrograms of proteins were resolved on SDS-PAGE and transferred onto nitrocellulose membrane. After blocking with TBS 5% skim milk, the membranes were probed with primary antibodies to JNK full, c-Jun, PKR, eIF2α (Santa Cruz, Danvers, USA), pJNK (Millipore, Billerica, USA), phosphor eIF2a (Thermo Fisher Scientific), PARP and tubulin (Cell Signaling, Danvers, USA). IR Dyes 800 and 700 (Rockland Immunochemical Inc, Gilbertsville, USA) antibodies were used as secondary antibodies. Blots were reveled with Odyssey imaging system (LI-COR Biosciences, Lincoln, USA).

[2] = tested on: experimental renal ischemia/reperfusion in rats; assay: Renal ischemia/reperfusion (clamping both renal pedicles 40 min), Wistar rats; type: in vivo, rat; settings: 2 mg/kg IV one hour after clamping; 24 h following ischemia
Description: Renal ischemia will be induced by clamping both renal pedicles with atraumatic clamp (induction of necropathy). One unique dose of the JNK inhibitor of SEQ ID NO: 172 (2000 μg/kg) will be administered intravenously (IV) into the tail vein on Day 0, one hour after clamping period (after reperfusion) both renal pedicles with atraumatic clamp. The administration volume will be 2 ml/kg. Heparin (5000 IU/kg) will be administered intraperitoneally 1 hour before clamping.
Each day, the general behavior and the appearance of all animals is observed. […] For the evaluation of the renal function, serum creatinine ([…]) or urea concentrations (mmol/mL) are measured with the appropriate kits (Bayer Healthcare AG, Leverkusen, Germany). […]
Twenty-six (26) male Wistar rats (age 5-6 weeks) were used in this study (divided into 2 groups of 10 rats and 1 group of 6 rats). […] The health of the animals was monitored (moribund animals, abnormal important loss of weight, major intolerance of the substance, etc. . . . ). […]
For evaluation of renal function, blood was collected from the tail vein at 24 hours after reperfusion. Serum creatinine ([…]) and urea concentrations (mmol/mL) were measured using appropriate kits (Bayer Healthcare AG, Leverkusen, Germany). […]

[3] = vs disease controls, IV QD d1-14, Dex 0.05 mg/kg, SEQ ID NO: 172 up to 5 mg/kg

Compound: CC(C)C[C@H](NC(=O)[C@H](CC(N)=O)NC(=O)[C@H](CC(C)C)NC(=O)[C@@H](NC(=O)[C@@H](C)NC(=O)[C@@H]1CCCN1C(=O)[C@H](CCCNC(=N)N)NC(=O)[C@@H](CCCCN)NC(=O)[C@@H]1CCCN1C(=O)[C@H](CCCNC(=N)N)NC(=O)[C@@H](CCCNC(=N)N)NC(=O)[C@H](CCCNC(=N)N)NC(=O)[C@H](CCCNC(=N)N)NC(=O)[C@H](CCC(N)=O)NC(=O)[C@@H](CCCNC(=N)N)NC(=O)[C@H](CCCNC(=N)N)NC(=O)[C@H](CCCCN)NC(=O)[C@H](CCCCN)NC(=O)[C@H](N)CCCNC(=N)N)[C@@H](C)O)C(=O)N[C@H](Cc1ccccc1)C(N)=O [SEQ ID NO: 172, rKKRrQRRrRPkRPaTLNLf] (H-[dR]KKR[dR]QRR[dR]RP[dK]RP[dA]TLNL[dF]-NH2; N-terminus assumed)
- IL-2 secretion in response to CD3/CD28 stimulation (primary human T-cells): blocks IL-2 secretion
- IL-2 secretion in response to PMA/Ionomycin (primary human T-cells): blocks IL-2 secretion
- ankle diameter AUC, reduction toward normal ([1]; 1 mg/kg IV QD d1-14): 27%
- inhibition of body weight loss vs disease controls ([1]; 1 mg/kg IV QD d1-14): 21%
- ankle diameter AUC, reduction toward normal ([1]; 5 mg/kg IV QD d1-14): 43%
- ankle histopathology, reduction of summed scores ([1]; 5 mg/kg IV QD d1-14): 25%
- final paw weights, reduction toward normal ([1]; 5 mg/kg IV QD d1-14): 26%
- inhibition of body weight loss vs disease controls ([1]; 5 mg/kg IV QD d1-14): 25%
- knee histopathology, reduction of summed scores ([1]; 5 mg/kg IV QD d1-14): 73%
- daily ankle diameter measurements ([1]; 5 mg/kg IV QD, p<0.05 days 4-12): reduced toward normal
- effect on organ weights ([1]; IV QD d1-14): no adverse effect on organ weights
- spleen weights relative to body weight [1, 3]: not significantly affected
- thymus weights relative to body weight [1, 3]: not significantly affected
- c-Jun activation (JNK; PKR−/− cultures): does not modify c-Jun activation
- decrease of c-Jun protein expression (JNK; PKR−/− cultures): 62%
- JNK activation (JNK; PKR−/− neurons): −60%
- serum creatinine relative to untreated ischemic rats [2]: lower serum creatinine
- urea relative to untreated ischemic rats [2]: lower urea
